This note sets out measurements from PubChem BioAssay AID720589 (Broad Institute, 2013).

The source made the active and inactive calls.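 How the source made its calls: active means fitted curve drops below -35% activity at a concentration within twice the top valid tested dose; inconclusive means no clear call, values can overlap the other calls; inactive means signal rising instead of falling, among other cases.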

One experiment in a line: ATP-based viability loss in HepG2 cells – cell-based, CellTiter-Glo luminescence, cherry-pick, set 3, cytotoxicity control, dose response (AID 720589). Conditions: HepG2 viability, ATP luminescence (CellTiter-Glo), 72 h; at 0.011 µM; stronger effect = lower value; 0% = untreated, negative = ATP loss. In general terms: In ATP-based viability assays light output follows the ATP content of the culture.
For `COC(=O)C[C@@H]1CC[C@@H]2[C@H](COc3ccc(NC(=O)c4ccc(C(F)(F)F)cc4)cc3C(=O)N2C)O1`, the max activity was -32.2% (inactive).

On to `COc1ccc(C(=O)OCC(=O)Nc2ccc(Cl)c(C(F)(F)F)c2)c(OC)c1OC`, for which the max activity is -15% (inactive).

As for `O=C(CCCCl)Nc1nc(-c2ccc3c(c2)OCCO3)cs1`, the max activity is -25% (inactive).

As to `O=C(NCc1ccc(F)cc1)N1[C@H]2CC[C@@H]1C=C(c1ccc(F)cc1OCc1ccccc1)C2`, the max activity is 21.9% (inactive).

For the molecule `COc1ccc(/C=N/Nc2ccc(C(=O)O)cc2)cc1Br`, the max activity was -16% (inactive).

Regarding `CC(=O)Nc1ccc(OCC(=O)N(CC(C)C)C2CCS(=O)(=O)C2)cc1` (configuration not stated), the max activity was 42.5% (inactive).

On to `C[C@@H]1CN([C@@H](C)CO)S(=O)(=O)c2ccc(C#Cc3ccncc3)cc2O[C@H]1CN(C)S(=O)(=O)c1ccccc1`, for which the max activity was -29.6% (inactive).

As to `CC(C)c1ccc(OCc2cccc(C(=O)N/N=C/c3cccnc3)c2)cc1`, the max activity was 8.88% (inactive).

Regarding `C/C=C/c1ccc([C@H]2[C@@H](CO)N3C(=O)CN(S(=O)(=O)c4cccc(F)c4)C[C@@H]23)cc1`, the max activity was 26.3% (inactive).

In the case of `COc1ccc2oc(C(=O)NCCc3ccccc3)c(C)c2c1`, the max activity is -16.8% (inactive).

The experiment is the same for the next values; noted with them: HepG2 viability, ATP luminescence (CellTiter-Glo), 72 h; at 0.035 µM; stronger effect = lower value; 0% = untreated, negative = ATP loss.
`CN(C)C(=S)N=Nc1[nH]c2ccccc2c1O`: the max activity was 24.6% (inactive).

On to `COc1ccc(/C=C2\SC(=S)N(CCCC(=O)NNC(=O)c3ccccc3O)C2=O)cc1`, for which the max activity was -21.1% (inactive).

The experiment is the same for the next values; noted with them: HepG2 viability, ATP luminescence (CellTiter-Glo), 72 h; at 0.1 µM; stronger effect = lower value; 0% = untreated, negative = ATP loss.
As to `COC(=O)C[C@H]1C=C[C@@H](NC(=O)Nc2ccc(C(F)(F)F)cc2)[C@H](CO)O1`, the max activity was -17.7% (inactive).

Turning to `C[C@H](CO)N1C[C@H](C)[C@H](CN(C)Cc2ccc(C(F)(F)F)cc2)Oc2c(NS(=O)(=O)c3ccc(Cl)cc3)cccc2C1=O`, the max activity was -20% (inactive).

For the molecule `CCCNC(=O)N1[C@H](C#N)[C@H](c2ccc(C#Cc3ccc(F)cc3)cc2)[C@H]1CO`, the max activity was -28.6% (inactive).

`CN(C)C(=O)c1cccc(-c2ccc(C3[C@@H]4CN(Cc5nccs5)C[C@H]3N4)cc2)c1` (some centres not stated): the max activity was -30.3% (inactive).

The same experiment, now with this note: HepG2 viability, ATP luminescence (CellTiter-Glo), 72 h; at 0.3 µM; stronger effect = lower value; 0% = untreated, negative = ATP loss.
With `Cc1ccc(/C=C2\SC(=S)N(CCC(=O)NNC(=O)c3ccccc3O)C2=O)cc1`, the max activity was -42.1% (inactive).

Consider `CC(C)CC(NC(=O)c1cccs1)c1nnc(SCc2ccc(Cl)c(Cl)c2)n1C` (configuration not stated), for which the max activity was -28.1% (inactive).

With `O=C1c2ccccc2C(=O)N1CCCCNc1ccccc1`, the max activity was -34.9% (inactive).

With `Cc1cc(C(=O)Nc2ccc3c(c2)C(=O)N(C)[C@@H]2CC[C@@H](CC(=O)NCc4ccc(-c5ccccc5)cc4)O[C@H]2CO3)no1`, the max activity is -28.4% (inactive).

Take `C[C@H](CO)N1C[C@H](C)[C@@H](CN(C)Cc2ccc(C(F)(F)F)cc2)OCCCC[C@H](C)Oc2ccc(NS(=O)(=O)c3ccc(F)cc3)cc2C1=O`: the max activity was 27.5% (inactive).

In the case of `Nc1ccc(Oc2ccccc2-c2ccccc2)cc1`, the max activity is -37% (inactive).

Take `COc1cc(-c2cnc3c(NC=O)cc(-c4cccc(NC(C)=O)c4)cn23)cc(OC)c1OC`: the max activity was -32.8% (inactive).

With `COCc1cc(C)nc2sc(C(=O)NCCO)c(-n3cccc3)c12`, the max activity was 7.49% (inactive).

Take `Cc1ccc(Cc2c(-c3ccco3)nc3c(C)cc(Br)cn23)cc1`: the max activity was -46.1% (inactive).

As for `CC(C)(C)c1ccc(Oc2ccc(NC(=O)c3ccccc3C(=O)O)cn2)cc1`, the max activity was -40.7% (inactive).

Still in this experiment, the particulars now being: HepG2 viability, ATP luminescence (CellTiter-Glo), 72 h; at 0.8 µM; stronger effect = lower value; 0% = untreated, negative = ATP loss.
With `Cc1ccc(S(=O)(=O)N(C)C[C@@H]2Oc3ccc(NC(=O)CCCCCC(=O)Nc4ccccc4N)cc3CC(=O)N([C@@H](C)CO)C[C@@H]2C)cc1`, the max activity was -38.7% (inactive).

The same experiment, now with this note: HepG2 viability, ATP luminescence (CellTiter-Glo), 72 h; at 0.9 µM; stronger effect = lower value; 0% = untreated, negative = ATP loss.
As for `O=C1C(=O)N(CCS(=O)(=O)c2ccccc2)c2ccc(Cl)cc21`, the max activity was -12.3% (inactive).

In the case of `COC(=O)C[C@@H]1CC[C@@H]2[C@H](COc3ccc(NC(=O)Nc4ccc(C#N)cc4)cc3C(=O)N2C)O1`, the max activity is -48.5% (inactive).

For the molecule `C[C@@H]1CN([C@@H](C)CO)C(=O)c2cccc(NC(=O)Nc3ccccc3)c2O[C@@H]1CN(C)Cc1ccc(-c2ccccc2)cc1`, the max activity is -17% (inactive).

Regarding `CCc1ccc(/C=C2\SC(=S)N(CCCC(=O)Nc3cc(C)on3)C2=O)cc1`, the max activity was -32.1% (inactive).

For the molecule `O=C(Nc1ccc(NC(=O)c2cc3ccccc3o2)cc1)c1ccc2c(c1)OCCO2`, the max activity is -30.6% (inactive).

`Cc1c(Cl)cccc1NC(=O)CCC(=O)N/N=C/c1ccc[nH]1`: the max activity is 21.7% (inactive).

Still in this experiment, the particulars now being: HepG2 viability, ATP luminescence (CellTiter-Glo), 72 h; at 2.85 µM; stronger effect = lower value.
In the case of `O=C(Nc1ccc(OC(=O)N2CCCCC2)cc1)N1CCOCC1`, the max activity is -13.3% (inactive).

The same experiment, now with this note: HepG2 viability, ATP luminescence (CellTiter-Glo), 72 h; at 2.85 µM; stronger effect = lower value; 0% = untreated, negative = ATP loss.
For `O=C(CN1C(=O)C(=O)c2ccccc21)c1ccc(Cl)cc1`, the max activity is -20.2% (inactive).

`CN=c1scc(-c2ccccc2F)n1/N=C/c1ccc(O)c(O)c1O`: the max activity was -42.6% (inactive).

For `CC(C)NC(=O)N(C)C[C@@H]1Oc2cc(C#Cc3ccc(F)cc3)ccc2S(=O)(=O)N([C@H](C)CO)C[C@H]1C`, the max activity was -21.1% (inactive).

With `O=C(O)c1cccc(N/N=C/c2ccc(OC(F)(F)F)cc2)c1`, the max activity is -28.9% (inactive).

For `COc1ccc(C(=O)NCCNc2nc3cc(C)cc(C)c3cc2C#N)c(OC)c1`, the max activity is -25.6% (inactive).

`C(=N\Nc1ccc2ccccc2n1)/c1ccc2c(c1)OCO2`: the max activity is -36.5% (inactive).

Take `COc1ccc(OC)c(-c2nnc3n2N=C(c2ccc(OC)c(OC4CCOC4)c2)CS3)c1` (configuration not stated): the max activity was -28.2% (inactive).

On to `CCCCCCCCCCCCCCCCCCNc1ccn(C2OC(COP(=O)(O)OCC3OC(n4cc(F)c(=O)[nH]c4=O)CC3O)C(O)C2O)c(=O)n1` (configuration not stated), for which the max activity is -36% (inactive).

Take `Cc1cc(C)cc(C(=O)NC(=S)Nc2ccc(Cc3ccncc3)cc2)c1`: the max activity is -39.1% (inactive).

Regarding `C[C@@H]1CN([C@@H](C)CO)C(=O)Cc2cc(NC(=O)Nc3ccc(C(F)(F)F)cc3)ccc2O[C@@H]1CN(C)Cc1ccc(C(=O)Nc2ccccc2N)cc1`, the max activity is -33% (inactive).

`O=C(C[C@@H]1C[C@H]2c3cc(NC(=O)CC4CC4)ccc3O[C@H]2[C@H](CO)O1)NCc1ccccc1F`: the max activity is -31.6% (inactive).

The experiment is the same for the next values; noted with them: HepG2 viability, ATP luminescence (CellTiter-Glo), 72 h; at 8 µM; stronger effect = lower value; 0% = untreated, negative = ATP loss.
As for `COC(=O)C[C@H]1CC[C@@H](NC(=O)Nc2ccc(C(F)(F)F)cc2)[C@H](CO)O1`, the max activity is -14.3% (inactive).

With `COC(=O)c1cccc(NC(=O)NC(=O)c2ccc(Cl)cc2)c1`, the max activity was -15.3% (inactive).

Turning to `CO[C@H]1CN(C)C(=O)c2cc(NC(=O)NC(C)C)ccc2OC[C@H](C)N(Cc2ccc(-c3ccccn3)cc2)C[C@@H]1C`, the max activity was -24.8% (inactive).

The same experiment, now with this note: HepG2 viability, ATP luminescence (CellTiter-Glo), 72 h; at 26 µM; stronger effect = lower value; 0% = untreated, negative = ATP loss.
As to `O=C(O)c1ccc2cc(-c3ccccc3)[nH]c2c1`, the max activity is -25% (inactive).

For the molecule `CN(CCO)c1ccc(/C=N/Nc2nncc3ccccc23)cc1`, the max activity is -29.7% (inactive).

Take `O=C(N/N=C/c1ccc[nH]1)c1cc(-c2ccc(Cl)cc2)nc2ccccc12`: the max activity was -21.3% (inactive).

Take `Cc1ccc(NC(=O)CCN2CCCCC2)cc1`: the max activity was 20.8% (inactive).

For the molecule `COc1ccc(/C=C(/C(=O)c2cccs2)N2C=CC=CC2=C(C#N)C#N)cc1`, the max activity was -33.6% (inactive).

With `O=c1[nH]c(=O)n(C2C[C@H](O)[C@@H](CO)O2)cc1C(F)(F)F` (some centres not stated), the max activity was -30.8% (inactive).

Turning to `O=C(C[C@H]1C[C@H]2c3cc(NS(=O)(=O)c4ccc(F)cc4)ccc3O[C@H]2[C@H](CO)O1)NCc1ccc(Oc2ccccc2)cc1`, the max activity is 21.5% (inactive).

Regarding `CCNC(=O)[C@@H]1[C@@H](CO)[C@@H]2Cn3c(ccc(C4=CCCCC4)c3=O)[C@H]1N2CC`, the max activity was -22.3% (inactive).

Take `CCOc1cc(N2CCC(O)CC2)ccc1Nc1ncc2c(n1)N(C)c1ccccc1C(=O)N2C`: the max activity was -18.4% (inactive).

Turning to `CC(C)N1C/C(=C/c2cccnc2)C(=O)/C(=C/c2cccnc2)C1`, the max activity is -29.5% (inactive).

For `COc1ccc(C(=O)CN2C(=O)c3ccccc3S2(=O)=O)cc1`, the max activity was 10.2% (inactive).

Consider `Oc1c(Cl)cc(Cl)c2cccnc12`, for which the max activity is -31.8% (inactive).

On to `Nc1sc(-c2ccccc2)cc1-c1n[nH]c(=S)n1C1CCCCC1`, for which the max activity was -25.2% (inactive).

For `CCN(CC)c1ccc(C2NC(=O)c3ccccc3N2)cc1` (configuration not stated), the max activity was -26.4% (inactive).

Turning to `O=c1cc(-c2ccccc2)oc2ccc3ccccc3c12`, the max activity was -21.9% (inactive).

Take `C[C@@H]1CN([C@H](C)CO)C(=O)CCCn2nncc2CO[C@H]1CN(C)Cc1ccc(Oc2ccccc2)cc1`: the max activity was -33.6% (inactive).

Regarding `COc1ccc(C2=NNC(=Nc3cc(S(=O)(=O)N(C)C)ccc3C)SC2)c(OC)c1`, the max activity is -17.3% (inactive).

Consider `O=C(CCCN1C(=O)S/C(=C\c2ccccc2)C1=O)NNC(=O)c1ccccc1O`, for which the max activity is -21.8% (inactive).

For `C(=Cc1cnc2ccccc2n1)c1ccc2c(c1)OCO2`, the max activity was -50.5% (inactive).
